Source: ChEMBL document CHEMBL3779850, “Synthesis, in vitro evaluation, and molecular modeling investigation of benzenesulfonimide peroxisome proliferator-activated receptors α antagonists” (Eur J Med Chem, 2016)
Active and inactive are the calls of the source. The calls are words filed in the database; no cut-off is given here.

Key:
[1] = biological target: T1, Peroxisome proliferator-activated receptor delta (Homo sapiens) (UniProt Q03181); experiment: Transactivation of PPARdelta (unknown origin) expressed in HEK293A cells after 16 to 18 hrs by luciferase reporter assay; assay type: cell-based; details: HEK293-A
T1 sequence (whole entry): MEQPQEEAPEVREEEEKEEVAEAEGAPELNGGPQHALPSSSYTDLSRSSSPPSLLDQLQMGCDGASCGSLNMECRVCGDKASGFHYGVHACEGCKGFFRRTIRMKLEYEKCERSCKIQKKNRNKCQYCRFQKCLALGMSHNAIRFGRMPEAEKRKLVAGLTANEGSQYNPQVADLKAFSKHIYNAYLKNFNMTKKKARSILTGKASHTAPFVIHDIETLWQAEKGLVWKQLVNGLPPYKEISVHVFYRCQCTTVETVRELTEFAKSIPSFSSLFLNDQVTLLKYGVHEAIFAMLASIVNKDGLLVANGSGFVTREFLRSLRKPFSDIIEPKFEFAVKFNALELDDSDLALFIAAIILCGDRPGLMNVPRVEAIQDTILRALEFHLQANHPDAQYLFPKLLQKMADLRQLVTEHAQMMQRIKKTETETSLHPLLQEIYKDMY

[2] = biological target: T2, Peroxisome proliferator-activated receptor gamma (Homo sapiens) (UniProt P37231); experiment: Antagonist activity at PPARgamma (unknown origin) expressed in HEK293A cells after 16 to 18 hrs by luciferase reporter assay; assay type: cell-based; details: HEK293-A
T2 sequence (whole entry): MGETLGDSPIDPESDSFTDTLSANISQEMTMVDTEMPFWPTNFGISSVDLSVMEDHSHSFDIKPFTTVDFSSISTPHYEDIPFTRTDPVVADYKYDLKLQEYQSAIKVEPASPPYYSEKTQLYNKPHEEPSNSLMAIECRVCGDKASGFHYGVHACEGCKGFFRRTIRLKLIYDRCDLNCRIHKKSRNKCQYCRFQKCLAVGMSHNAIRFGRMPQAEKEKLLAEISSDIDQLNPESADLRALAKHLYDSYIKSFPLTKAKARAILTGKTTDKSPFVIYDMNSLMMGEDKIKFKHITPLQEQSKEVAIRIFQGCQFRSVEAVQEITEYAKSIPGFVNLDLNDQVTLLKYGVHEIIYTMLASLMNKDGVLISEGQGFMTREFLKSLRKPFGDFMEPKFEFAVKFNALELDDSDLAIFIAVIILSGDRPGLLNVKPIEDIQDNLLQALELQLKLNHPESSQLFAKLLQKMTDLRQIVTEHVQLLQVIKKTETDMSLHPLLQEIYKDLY

[3] = biological target: T3, Peroxisome proliferator-activated receptor alpha (Homo sapiens) (UniProt Q07869); experiment: Transactivation of PPARalpha (unknown origin) expressed in HEK293A cells at 150 uM after 16 to 18 hrs by luciferase reporter assay relative to control; assay type: cell-based; details: HEK293-A
T3 sequence (whole entry): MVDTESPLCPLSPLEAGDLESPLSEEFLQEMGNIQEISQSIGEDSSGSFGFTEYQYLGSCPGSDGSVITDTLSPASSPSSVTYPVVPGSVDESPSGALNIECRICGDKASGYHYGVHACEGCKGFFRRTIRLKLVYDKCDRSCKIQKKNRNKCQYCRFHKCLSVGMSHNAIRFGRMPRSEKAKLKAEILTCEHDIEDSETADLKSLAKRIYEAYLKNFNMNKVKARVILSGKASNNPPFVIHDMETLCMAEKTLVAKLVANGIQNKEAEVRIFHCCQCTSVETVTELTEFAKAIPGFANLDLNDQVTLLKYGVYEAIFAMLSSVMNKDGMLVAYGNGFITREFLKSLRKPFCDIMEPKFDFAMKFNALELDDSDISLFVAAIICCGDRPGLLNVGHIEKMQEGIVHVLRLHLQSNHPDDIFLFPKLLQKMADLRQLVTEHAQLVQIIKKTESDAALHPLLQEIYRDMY

[4] = biological target: T4, Peroxisome proliferator-activated receptor alpha (Homo sapiens, UniProt Q07869); experiment: Antagonist activity at PPARalpha (unknown origin) expressed in HEK293A cells assessed as inhibition of GW7647-induced transactivation after 16 to 18 hrs by luciferase reporter assay; assay type: cell-based, HEK293-A
T4 sequence (Q07869 whole entry): T3 sequence (whole entry)

[5] = biological target: T3, Peroxisome proliferator-activated receptor alpha (Homo sapiens); experiment: Transactivation of PPARalpha in human HepG2 cells assessed as increase in CPT1 mRNA expression at 150 uM after 48 hrs by RT-PCR method; assay type: cell-based
[6] = biological target: T3, Peroxisome proliferator-activated receptor alpha (Homo sapiens); experiment: Antagonist activity at PPARalpha in human HepG2 cells assessed as inhibition of GW7647-induced CPT1 mRNA expression at 150 uM after 48 hrs by RT-PCR method; assay type: cell-based
[7] = biological target: T2, Peroxisome proliferator-activated receptor gamma (Homo sapiens); experiment: Transactivation of PPARgamma (unknown origin) expressed in HEK293A cells at IC50 after 16 to 18 hrs by luciferase reporter assay; assay type: cell-based; details: HEK293-A

| Compound | Activity [1] | inhibition [2] | fold change (FC) [3] | IC50 [4] [µM] | Activity [5] | inhibition [6] | Activity [7] |
| --- | --- | --- | --- | --- | --- | --- | --- |
| CCCC(Sc1nc2cc(Cl)ccc2s1)C(=O)NS(=O)(=O)c1ccc(NC(C)=O)cc1 (stereo not given) | inactive | Active | 0.2 | 108 | – | – | – |
| O=C(NS(=O)(=O)c1ccc(Cl)cc1)C(Sc1nc2cc(Cl)ccc2s1)c1ccccc1 (stereo not given) | inactive | – | 0.9 | – | – | – | Active |
| Cc1ccc(C)c(OCCCC(C)(C)C(=O)NS(=O)(=O)c2ccccc2)c1 | – | – | 0.05 | 8.8 | – | – | – |
| CCCC(Sc1nc2cc(Cl)ccc2s1)C(=O)NS(=O)(=O)c1ccc(Cl)cc1 (stereo not given) | inactive | Active | 0.04 | 6.86 | – | – | – |
| CC(C)(Oc1ccc(C(=O)c2ccc(Cl)cc2)cc1)C(=O)NS(=O)(=O)c1ccccc1 | – | – | 0.08 | 7.65 | – | – | – |

Further compounds by falling IC50 [4], results first:

| Activity [1] | inhibition [2] | fold change (FC) [3] | IC50 [4] [µM] | Activity [5] | inhibition [6] | Activity [7] | Compound |
| --- | --- | --- | --- | --- | --- | --- | --- |
| inactive | Active | < 0.01 | 4.6 | – | – | – | CCCC(Sc1nc2cc(Cl)ccc2s1)C(=O)NS(=O)(=O)c1ccc(C)cc1 (stereo not given) |
| inactive | Active | 0.05 | 4.5 | – | – | – | CCCC(Sc1nc2cc(Cl)ccc2s1)C(=O)NS(=O)(=O)c1ccc(NC(=O)c2ccccc2)cc1 (stereo not given) |
| inactive | Active | 0.03 | 0.85 | inactive | Active | – | CCCC(Sc1nc2cc(Cl)ccc2s1)C(=O)NS(=O)(=O)c1ccc([N+](=O)[O-])cc1 (stereo not given) |
| inactive | Active | 0.22 | 0.82 | inactive | Active | – | O=C(NS(=O)(=O)c1ccc([N+](=O)[O-])cc1)C(Sc1nc2cc(Cl)ccc2s1)c1ccccc1 (stereo not given) |
| – | – | 0.28 | 0.8 | – | – | – | CC(C)(Oc1ccc(CCNC(=O)c2ccc(Cl)cc2)cc1)C(=O)NS(=O)(=O)c1ccccc1 |
| inactive | Active | < 0.01 | 0.68 | inactive | Active | – | CCCC(Sc1nc2cc(Cl)ccc2s1)C(=O)NS(=O)(=O)c1ccc(OC)cc1 (stereo not given) |
| – | – | 0.47 | 0.65 | – | – | – | CC(C)(Oc1ccc(Cl)cc1)C(=O)NS(=O)(=O)c1ccccc1 |
